Experimental data published in publication PMC3658936, “Comparison of cyclic RGD peptides for αvβ3 integrin detection in a rat model of myocardial infarction” (EJNMMI Research, 2013).
Like-named read-outs stand apart in the source and are kept apart here. One block for each compound: values may come before it.

How the values were obtained:
[1] = Ex vivo biodistribution in tissues by gamma counting; design: species or system rat; settings: for tissue uptake at 1.5 h: Lewis, rat, in vivo, total radioactivity
Description: Rats were anesthetised using 1.5% isoflurane and were injected via tail vein catheter with ^18F-galacto-RGD (37 MBq, n = 9), ^68Ga-NODAGA-RGD (69 MBq, n = 10) or of ^68Ga-TRAP(RGD)3 (54 MBq, n = 12). Rats were kept under anaesthesia in a warmed bed until euthanized after 90 min using intravenous injection of 150 mg/kg of pentobarbiturate (Narcoren®, Merial, Rohrdorf, Germany). The heart was excised and cut transaxially at the location of the infarct. The apical part, containing both infarct and non-affected remote myocardium, was processed for sectioning for autoradiography as described below.
Tissue samples (remote myocardium, apical part of myocardium, femoral muscle, operation wound and the connective tissue contralateral to the wound, spleen, liver, kidney, urine and blood) were dissected, and the weights of the tissue, urine, blood and serum samples were measured and their activity was detected using a gamma counter (1480 Wizard, PerkinElmer Wallac, Turku, Finland).

αvβ3 integrin [2] = assay: in vivo; settings: for tissue uptake per volume at 1.375 h: male, Lewis, in vivo, iv, total radioactivity
Description: Permanent ligation of the left anterior descending coronary artery was performed, as previously described in 34 healthy male Lewis rats (Charles Rivers Laboratories, Sulzfeld, Germany) aged 8 to 10 weeks to induce MI. Briefly, the rats were anaesthetised with intramuscular administration of midazolam 5 mg/kg (Dormicum®, Roche; Grenzach-Wyhlen, Germany), medetomidin 0.5 mg/kg (Dormitor®, Pfizer, Karlsruhe, Germany) and fentanyl 0.05 mg/kg (Ratiopharm, Ulm, Germany) and connected to a rodent ventilator. The heart was exposed through a left lateral thoracotomy of the fourth intercostal space, and the left anterior descending (LAD) artery was ligated near to its origin (2 to 3 mm from the tip of the left atrium). Two rats underwent sham operation, which consisted of the same procedures except that the LAD artery suture was not tightened. The rats were treated with 0.05 mg/kg buprenorphin (Temgesic®, Essex, Germany) and 4 mg/kg carprofen (Rimadyl, Pfizer, Germany) for 72 h post surgery. The study protocols were approved by the regional governmental commission for animal protection (Regierung von Oberbayern, Munich, Germany).
A subset of animals (n = 7) was imaged using a small-animal PET/CT scanner (Inveon, Siemens Medical Solutions, Knoxville, TN, USA). The rats were anaesthetised using 1.5% isoflurane. Breathing was monitored and temperature was maintained using a heating pad throughout the imaging procedures. The rats were injected with 37 MBq of [^13N]NH3 via tail a vein catheter, and perfusion images were acquired for 15 min starting at the time of injection. A CT scan was performed for anatomical localisation. The animals were left anaesthetised in the scanner, and 60 min later, the animals were injected with either ^68Ga-NODAGA-RGD (72 MBq, n = 4) or ^68Ga-TRAP(RGD)3 (63 MBq, n = 3) via the tail vein. […]
The ^68Ga- and ^13N-PET images were fused, and the uptake was visualised using the Inveon Research Workplace (Siemens, Knoxville, TN, USA). […] The mean radioactivity concentration within the ROI was expressed as the percentage of injected dose per cubic centimetre (% ID/cc).

αvβ3 integrin [3] = assay: Ex vivo autoradiography of RGD tracer uptake in the myocardium (infarct vs. remote); settings: rat MI 1 week after LAD ligation, 90 min p.i., mean ± SD
Description: Permanent ligation of the left anterior descending coronary artery was performed, as previously described in 34 healthy male Lewis rats (Charles Rivers Laboratories, Sulzfeld, Germany) aged 8 to 10 weeks to induce MI. Briefly, the rats were anaesthetised with intramuscular administration of midazolam 5 mg/kg (Dormicum®, Roche; Grenzach-Wyhlen, Germany), medetomidin 0.5 mg/kg (Dormitor®, Pfizer, Karlsruhe, Germany) and fentanyl 0.05 mg/kg (Ratiopharm, Ulm, Germany) and connected to a rodent ventilator. […]
The excised hearts were frozen and embedded in Tissue Tek® mounting media (Sakura Finetek Europe B.V., Alphen aan den Rijn, the Netherlands). […] After an overnight exposure, the imaging plates were scanned with an image plate scanner (CR 35 BIO, Dürr Medical, Raytest Isotopenmeßgeräte GmbH, Germany; internal resolution of 25 μm), and the images were analysed for background-corrected count densities (PSL/mm^2) with an image analysis programme (AIDA Image Analyser, Raytest Isotopenmeßgeräte, Germany). […]
(§1) After careful co-registration of the autoradiographs and HE histological images, regional tracer uptake was analysed in the following two regions: (1) the infarcted myocardium containing the border zone as assessed after HE staining and (2) the remote, non-affected myocardium. […]

αvβ3 integrin [4] = system: αvβ3 integrin; design: method as in PMID 22147338, PMID 22444238; settings: competitive displacement assay on M21 human melanoma cells; cited from earlier work
αvβ3 integrin [5] = assay: Specificity of RGD binding: pre-injection of a blocking dose of cilengitide, autoradiography; assay type: in vivo, rat; settings: cilengitide 18 mg/kg 10 min prior to tracer injection
Description: The specificity of the RGD binding was studied on three rats with pre-injection of a blocking dose of cilengitide (18 mg/kg = 30.6 μmol/kg) 10 min prior to the tracer injection.
The excised hearts were frozen and embedded in Tissue Tek® mounting media (Sakura Finetek Europe B.V., Alphen aan den Rijn, the Netherlands). Serial LV short-axis cryosections of 20-μm thickness were obtained. Similar sections of muscle and spleen samples of the same rat were processed and used as negative and positive controls. After quick air drying, the sections were exposed to an imaging plate (Kodak Storage Phosphor screen GP, Eastman Kodak Company, Rochester, NY, USA). After an overnight exposure, the imaging plates were scanned with an image plate scanner (CR 35 BIO, Dürr Medical, Raytest Isotopenmeßgeräte GmbH, Germany; internal resolution of 25 μm), and the images were analysed for background-corrected count densities (PSL/mm^2) with an image analysis programme (AIDA Image Analyser, Raytest Isotopenmeßgeräte, Germany). […]
as §1

tissue uptake at 1.5 h ([1]; Biodistribution: Apical myocardium): 0.156 ± 0.06 %ID/g
tissue uptake at 1.5 h ([1]; Biodistribution: Blood): 0.058 ± 0.02 %ID/g
tissue uptake at 1.5 h ([1]; Biodistribution: Connective tissue): 0.11 ± 0.05 %ID/g
tissue uptake at 1.5 h ([1]; Biodistribution: Kidney): 1.1 ± 0.7 %ID/g
tissue uptake at 1.5 h ([1]; Biodistribution: Liver): 0.23 ± 0.17 %ID/g
tissue uptake at 1.5 h ([1]; Biodistribution: Muscle): 0.035 ± 0.01 %ID/g
tissue uptake at 1.5 h ([1]; Biodistribution: Remote myocardium): 0.071 ± 0.03 %ID/g
tissue uptake at 1.5 h ([1]; Biodistribution: Serum): 0.094 ± 0.05 %ID/g
tissue uptake at 1.5 h ([1]; Biodistribution: Spleen): 0.246 ± 0.16 %ID/g
tissue uptake at 1.5 h ([1]; Biodistribution: Urine): 20.2 ± 6.4 %ID/g
tissue uptake at 1.5 h ([1]; Biodistribution: Wound): 0.27 ± 0.24 %ID/g
tissue uptake per volume at 1.375 h (αvβ3 integrin [2]; rat): 0.17 ± 0.03 %ID/mL
Compound: N=C(N)NCCC[C@@H]1NC(=O)[C@H](CCCCNC(=O)CCC(C(=O)O)N2CCN(CC(=O)O)CCN(CC(=O)O)CC2)NC(=O)[C@@H](Cc2ccc(O)cc2)NC(=O)[C@H](CC(=O)O)NC(=O)CNC1=O (stereo partly shown) [^68Ga-NODAGA-RGD, ^68Ga-NODAGA-cyclo(RGDyK), metal not drawn]

Compound: N=C(N)NCCC[C@@H]1NC(=O)[C@H](CCCCNC(=O)CCP(=O)(O)CN2CCN(CP(=O)(O)CCC(=O)NCCCC[C@@H]3NC(=O)[C@@H](Cc4ccccc4)NC(=O)[C@H](CC(=O)O)NC(=O)CNC(=O)[C@H](CCCNC(=N)N)NC3=O)CCN(CP(=O)(O)CCC(=O)NCCCC[C@@H]3NC(=O)[C@@H](Cc4ccccc4)NC(=O)[C@H](CC(=O)O)NC(=O)CNC(=O)[C@H](CCCNC(=N)N)NC3=O)CC2)NC(=O)[C@@H](Cc2ccccc2)NC(=O)[C@H](CC(=O)O)NC(=O)CNC1=O [^68Ga-TRAP(RGD)3, ^68Ga-TRAP(cyclo(RGDfK))3, metal not drawn]
tissue uptake at 1.5 h ([1]; 90 min p.i., mean ± SD, contains both infarct and remote areas, read-out: Biodistribution: Apical myocardium): 0.353 ± 0.1 %ID/g
tissue uptake at 1.5 h ([1]; 90 min p.i., mean ± SD, contralateral to the wound, read-out: Biodistribution: Connective tissue): 0.19 ± 0.08 %ID/g
tissue uptake at 1.5 h ([1]; 90 min p.i., mean ± SD, read-out: Biodistribution: Blood): 0.101 ± 0.07 %ID/g
tissue uptake at 1.5 h ([1]; 90 min p.i., mean ± SD, read-out: Biodistribution: Kidney): 1.45 ± 0.51 %ID/g
tissue uptake at 1.5 h ([1]; 90 min p.i., mean ± SD, read-out: Biodistribution: Liver): 0.524 ± 0.61 %ID/g
tissue uptake at 1.5 h ([1]; 90 min p.i., mean ± SD, read-out: Biodistribution: Muscle): 0.066 ± 0.03 %ID/g
tissue uptake at 1.5 h ([1]; 90 min p.i., mean ± SD, read-out: Biodistribution: Remote myocardium): 0.154 ± 0.09 %ID/g
tissue uptake at 1.5 h ([1]; 90 min p.i., mean ± SD, read-out: Biodistribution: Serum): 0.166 ± 0.12 %ID/g
tissue uptake at 1.5 h ([1]; 90 min p.i., mean ± SD, read-out: Biodistribution: Spleen): 0.415 ± 0.3 %ID/g
tissue uptake at 1.5 h ([1]; 90 min p.i., mean ± SD, read-out: Biodistribution: Urine): 35.1 ± 22.4 %ID/g
tissue uptake at 1.5 h ([1]; 90 min p.i., mean ± SD, read-out: Biodistribution: Wound): 0.256 ± 0.12 %ID/g
apical-to-remote ratio ([1]; gamma counting, apical part vs. remote myocardium tissue sample): 2.1
infarct vs. remote PSL/mm2 uptake ratio (αvβ3 integrin [3]): 4.1 ± 0.7
IC50 (αvβ3 integrin [4]): 0.044 µM
infarct-to-remote ratio (PET) (αvβ3 integrin [2]; PET image-derived, rat MI 1 week): 1.9
tissue uptake per volume at 1.375 h (αvβ3 integrin [2]; PET, 82.5 min after injection, rat MI 1 week, read-out: image-derived average uptake in the myocardium, infarct area): 0.25 ± 0.02 %ID/mL

Compound: ^18F-galacto-cyclo(RGDfK) [^18F-galacto-RGD, reference compound]
infarct vs. remote PSL/mm2 uptake ratio (αvβ3 integrin [3]): 4.7 ± 0.8
IC50 (αvβ3 integrin [4]): 0.319 µM

Compound: cilengitide
effect of pre-injection of high-dose cilengitide on tracer uptake (αvβ3 integrin [5]): reduced the uptake in the myocardium and also in the spleen
